Laboratory results reported in patent US20040059104A1, “Nucleotide mimics and their prodrugs” (priority 2002, published 2004).

Tests used:
[1] = molecular target: T1, HIV Reverse Transcriptase (Type B, 66 kDa subunit) (Human immunodeficiency virus type 1 group M subtype B, UniProt P04585); experiment: HIV Reverse Transcriptase inhibition assays (RNA-directed DNA polymerization, PicoGreen fluorescence); type: biochemical; settings: Table 1; template (homopolymer or heteropolymer RNA) not stated; read-out: Ki, Inhibition of HIV Reverse Transcriptase by Nucleotide Mimics
T1 construct: purified HIV Reverse Transcriptase (Type B, 66 kDa subunit)
Protocol: The assays employed to measure inhibition of HIV Reverse Transcriptase (HIV RT) catalyzed/RNA-directed DNA polymerization are described below. The effectiveness of the compounds of the present invention as inhibitors of HIV RT-catalyzed DNA polymerization was measured in the following assays.
This assay was used to measure the ability of the nucleotide mimics of the present invention to inhibit the enzymatic synthesis of complementary strand DNA from a DNA-primed template of homopolymeric RNA. This assay is a modification of a published procedure (Seville, et al., “Fluorometric Assay for DNA Polymerases and Reverse Transcriptase”, BioTechniques 1996, 21, 664-72).
The compounds were tested at various concentrations up to 500 μM final concentration. DNA polymerase activity was measured in a reaction buffer containing primed-RNA template and dTTP diluted to appropriate concentrations in assay buffer. Nucleotide mimics of the present invention were diluted in buffer and pipetted into the wells of a 96-well plate. The reaction was initiated by addition of enzyme and allowed to proceed at 37° C. for 10 minutes. The reaction was quenched by addition of 5 μL 0.2 M EDTA, pH 8.0.
200 μL of diluted PicoGreen dsDNA Quantitation Reagent (Molecular Probes, Inc, Eugene, Oreg.) was added to each well of a 96-well plate and incubated at room temperature for 5 minutes. Plate wells were read on a microplate fluorometer (Molecular Devices Corp., Sunnyvale, Calif.). The wells were excited at 480 nm and the fluorescence emission intensity (RFU) was measured at 520 nm. The percentage of inhibition was calculated according to the following equation:
% Inhibition=[1−(RFU in test reaction−RFU in blank)/(RFU in control reaction−RFU in blank)]×100.
Each inhibitor was titrated over an appropriate range of concentrations, and inhibition constants were determined using the following equations:
v=Vm[S]/(Km(1+[I]/Ki)+[S])
Certain compounds of the present invention were also tested to determine their ability to inhibit HIV RT-catalyzed DNA polymerization on a heteropolymeric primed-RNA template in the presence of all four natural deoxynucleotide triphosphate (dNTP) substrates. This assay is a modification of a published procedure (Parker et al., “Mechanism of Inhibition of Human Immunodeficiency Virus Type 1 Reverse Transcriptase and Human DNA Polymerases α, β, and γ by the 5′-Triphosphates of Carbovir,3′-Azido-3′-deoxythymidine,2′-3′-Dideoxyguanosine, and 3′-Deoxythymidine”, J. Biol. Chem. 1991, 266 (3), 1754-62).
HIV RT DNA polymerase activity was measured in a reaction buffer containing primed-ribosomal RNA template and dNTPs diluted to appropriate concentrations in assay buffer and pipetted into 1.5 mL microcentrifuge tubes. Nucleotide mimics of the present invention were diluted in buffer and tested at various concentrations up to 5 μM final concentration. The reaction was initiated by addition of enzyme and allowed to proceed at 42° C. for 60 to 90 minutes. The reaction was quenched by addition of 12 μL 0.2 M EDTA, pH 8.0.
50 μL each of reaction was transferred to the well of a 96-well plate (in duplicate). 200 μL of diluted PicoGreen dsDNA Quantitation Reagent was added to each well of a 96-well plate and incubated at room temperature for 5 minutes. Plate wells were read on a microplate fluorometer. The wells were excited at 480 nm and the fluorescence emission intensity (RFU) was measured at 520 nm. The percentage of inhibition and inhibition constants […] were determined for representative compounds as described above.

in vitro = settings: bovine, serum, Half-Life, Serum Half-Lives of NTPs and AZT Triphosphate Mimics

Work on `[BH3-][P+](O)(OCC1OC(n2cc(C)c(=O)[nH]c2=O)CC1N=[N+]=[N-])OP(=O)(O)C(F)(F)P(=O)(O)O` (single isomer, unassigned) [Compound 27-isomer 1, 3′-Azido-3′-deoxythymidine 5′-α-P-borano-β,γ-(difluoromethylene)triphosphate] yielded a Ki [1] of 8 nM and a half-life at 500 μM (in vitro) of over 48 h.
